According to ChEMBL document CHEMBL1201862, “PubChem BioAssay data set” (2004):
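Where inhibition never reached the appropriate level, the endpoint shown equals the highest concentration tested. Otherwise, values were interpolated linearly from a five-concentration, 48-hour dose response in 96-well plates. GI50 is the concentration that inhibits growth by half.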 Calls of active or inactive are those of the source. Cut-off read from the data, not from the text of the source: active = GI50 up to about 1.1 µM and inactive = higher.

Key:
Assay in all cases: NCI anticancer screen, dose series, 48 h
786-0 = system: 786-0
A498 = system: A498
A549 = system: A549
ACHN = system: ACHN
BT-549 = system: BT-549
CAKI-1 = system: CAKI-1
CCRF-CEM = system: CCRF-CEM
COLO 205 = system: COLO 205
DU-145 = system: DU-145
EKVX = system: EKVX
HCC 2998 = system: HCC 2998
HCT-116 = system: HCT-116
HCT-15 = system: HCT-15
HL-60 = system: HL-60
HOP-62 = system: HOP-62
HOP-92 = system: HOP-92
HT-29 = system: HT-29
Hs-578T = system: Hs-578T
IGROV-1 = system: IGROV-1
KM12 = system: KM12
LOX IMVI = system: LOX IMVI
M14 = system: M14
MCF7 = system: MCF7
MDA-MB-231 = system: MDA-MB-231
MDA-MB-435 = system: MDA-MB-435
MDA-N = system: MDA-N
MOLT-4 = system: MOLT-4
NCI-H23 = system: NCI-H23
NCI-H460 = system: NCI-H460
NCI-H522 = system: NCI-H522
NCI/ADR-RES = system: NCI/ADR-RES
OVCAR-4 = system: OVCAR-4
OVCAR-5 = system: OVCAR-5
OVCAR-8 = system: OVCAR-8
PC-3 = system: PC-3
RPMI-8226 = system: RPMI-8226
SF-268 = system: SF-268
SF-295 = system: SF-295
SF-539 = system: SF-539
SK-MEL-28 = system: SK-MEL-28
SK-MEL-2 = system: SK-MEL-2
SK-MEL-5 = system: SK-MEL-5
SN12C = system: SN12C
SNB-19 = system: SNB-19
SNB-75 = system: SNB-75
SR = system: SR
SW-620 = system: SW-620
T47D = system: T47D
TK-10 = system: TK-10
U-251 = system: U-251
UACC-257 = system: UACC-257
UACC-62 = system: UACC-62
UO-31 = system: UO-31
K562 = system: K562
Malme-3M = system: Malme-3M
OVCAR-3 = system: OVCAR-3
RXF 393 = system: RXF 393
SK-OV-3 = system: SK-OV-3

COC(=O)NC1C(C)OC(OC2C/C=C(/C)C3C=CC4C(OC5CC(OC6CC(OC7CC(O)C(O)C(C)O7)C(OC7CC(O)C(OC)C(C)O7)C(C)O6)C(O)C(C)O5)C(C)CC(C)C4C3(C)C(=O)C3=C(O)C4(CC(C)C(CO)=CC4/C=C\2C)OC3=O)CC1(C)[N+](=O)[O-] (centres undefined) was tested, and the GI50 (786-0) was 2.44 µM (inactive), the GI50 (A498) was 25.6 µM (inactive) and the GI50 (A549) was 5.04 µM (inactive). For the same molecule, the GI50 (ACHN) was 11.6 µM (inactive), the GI50 (BT-549) was 20.8 µM (inactive) and the GI50 (CAKI-1) was 16 µM (inactive). For the same molecule, the GI50 (CCRF-CEM) was 3.29 µM (inactive), the GI50 (COLO 205) was 11.3 µM (inactive) and the GI50 (DU-145) was 6.73 µM (inactive). The GI50 (EKVX) was 14.4 µM (inactive), the GI50 (HCC 2998) was 3.49 µM (inactive) and the GI50 (HCT-116) was 1.59 µM (inactive). The GI50 (HCT-15) was 15.6 µM, the GI50 (HL-60) was 2.54 µM (inactive) and the GI50 (HOP-62) was 3.38 µM (inactive). The GI50 (HOP-92) was 6.24 µM (inactive), the GI50 (HT-29) was 7.83 µM (inactive) and the GI50 (Hs-578T) was 6.85 µM (inactive). For the same molecule, the GI50 (IGROV-1) was 10.4 µM (inactive), the GI50 (KM12) was 6.7 µM (inactive) and the GI50 (LOX IMVI) was 3.23 µM (inactive). The GI50 (M14) was 17.1 µM (inactive), the GI50 (MCF7) was 11.7 µM (inactive) and the GI50 (MDA-MB-231) was 12 µM (inactive). For the same molecule, the GI50 (MDA-MB-435) was 9.64 µM (inactive), the GI50 (MDA-N) was 14 µM (inactive) and the GI50 (MOLT-4) was 6.15 µM (inactive). For the same molecule, the GI50 (NCI-H23) was 12.9 µM (inactive), the GI50 (NCI-H460) was 2.06 µM (inactive) and the GI50 (NCI-H522) was 2.99 µM (inactive). The GI50 (NCI/ADR-RES) was 38.7 µM (inactive), the GI50 (OVCAR-4) was 17.5 µM (inactive) and the GI50 (OVCAR-5) was 16.9 µM (inactive). The GI50 (OVCAR-8) was 8.57 µM (inactive), the GI50 (PC-3) was 16.3 µM (inactive) and the GI50 (RPMI-8226) was 1.6 µM (inactive). The GI50 (SF-268) was 11.6 µM (inactive), the GI50 (SF-295) was 4.6 µM (inactive) and the GI50 (SF-539) was 17.8 µM (inactive). For the same molecule, the GI50 (SK-MEL-28) was 8.34 µM (inactive), the GI50 (SK-MEL-2) was 11.6 µM (inactive) and the GI50 (SK-MEL-5) was 5.22 µM (inactive). The GI50 (SN12C) was 11.7 µM (inactive), the GI50 (SNB-19) was 21.2 µM (inactive) and the GI50 (SNB-75) was 2.47 µM (inactive). For the same molecule, the GI50 (SR) was 2.71 µM (inactive), the GI50 (SW-620) was 5.24 µM (inactive) and the GI50 (T47D) was 7.78 µM (inactive). For the same molecule, the GI50 (TK-10) was 16.6 µM (inactive), the GI50 (U-251) was 3.84 µM (inactive) and the GI50 (UACC-257) was 9.89 µM (inactive). The GI50 (UACC-62) was 4.14 µM (inactive) and the GI50 (UO-31) was 22.9 µM (inactive).
For CC(=O)Oc1ccc(/C=C/C(=O)O[C@@H](C)[C@H](C)OC(=O)/C=C/c2ccc(OC(C)=O)c(OC(C)=O)c2)cc1OC(C)=O, the GI50 (786-0) was 12.1 µM (inactive), the GI50 (A498) was 24.7 µM (inactive) and the GI50 (A549) was 13.8 µM (inactive). For the same molecule, the GI50 (ACHN) was 11.4 µM (inactive), the GI50 (BT-549) was 10 µM (inactive) and the GI50 (CAKI-1) was 27.3 µM (inactive). For the same molecule, the GI50 (CCRF-CEM) was 3.94 µM (inactive), the GI50 (COLO 205) was 29.5 µM (inactive) and the GI50 (DU-145) was 21.9 µM (inactive). For the same molecule, the GI50 (EKVX) was 22.9 µM (inactive), the GI50 (HCC 2998) was 11.4 µM (inactive) and the GI50 (HCT-116) was 7.5 µM (inactive). The GI50 (HCT-15) was 6.31 µM, the GI50 (HOP-62) was 7.45 µM (inactive) and the GI50 (HOP-92) was 20.2 µM (inactive). For the same molecule, the GI50 (Hs-578T) was 11 µM (inactive), the GI50 (IGROV-1) was 5.75 µM (inactive) and the GI50 (K562) was 3.99 µM (inactive). For the same molecule, the GI50 (KM12) was 9.46 µM (inactive), the GI50 (LOX IMVI) was 6.61 µM (inactive) and the GI50 (M14) was 11.4 µM (inactive). The GI50 (MCF7) was 20 µM (inactive), the GI50 (MDA-MB-231) was 39.9 µM (inactive) and the GI50 (MDA-MB-435) was 12.2 µM (inactive). For the same molecule, the GI50 (MDA-N) was 11.1 µM (inactive), the GI50 (MOLT-4) was 2.22 µM (inactive) and the GI50 (Malme-3M) was 22.9 µM (inactive). The GI50 (NCI-H23) was 6.5 µM (inactive), the GI50 (NCI-H460) was 5.94 µM (inactive) and the GI50 (NCI-H522) was 6.37 µM (inactive). The GI50 (NCI/ADR-RES) was 22.2 µM (inactive), the GI50 (OVCAR-3) was 5.15 µM (inactive) and the GI50 (OVCAR-4) was 28.7 µM (inactive). The GI50 (OVCAR-5) was 21.2 µM (inactive), the GI50 (OVCAR-8) was 11.5 µM (inactive) and the GI50 (PC-3) was 23.1 µM (inactive). For the same molecule, the GI50 (RPMI-8226) was 4.75 µM (inactive), the GI50 (RXF 393) was 13.6 µM (inactive) and the GI50 (SF-268) was 18.4 µM (inactive). For the same molecule, the GI50 (SF-295) was 11.2 µM (inactive), the GI50 (SF-539) was > 100 µM (inactive) and the GI50 (SK-MEL-28) was 15.3 µM (inactive). The GI50 (SK-MEL-2) was 19.7 µM (inactive), the GI50 (SK-MEL-5) was 10.6 µM (inactive) and the GI50 (SK-OV-3) was 19.5 µM (inactive). The GI50 (SN12C) was 19.6 µM (inactive), the GI50 (SNB-19) was 18.9 µM (inactive) and the GI50 (SNB-75) was 20.1 µM (inactive). The GI50 (SR) was 5.77 µM (inactive), the GI50 (SW-620) was 2.42 µM (inactive) and the GI50 (T47D) was 13 µM (inactive). For the same molecule, the GI50 (TK-10) was 21.2 µM (inactive), the GI50 (U-251) was 17.1 µM (inactive) and the GI50 (UACC-257) was 18.7 µM (inactive). For the same molecule, the GI50 (UACC-62) was 8.41 µM (inactive) and the GI50 (UO-31) was 5.94 µM (inactive).
